Key:
Sclerostin = target: T1, Sclerostin (Homo sapiens, UniProt Q9BQB4); assay: luciferase Wnt pathway activity assay (inhibition of sclerostin by restoration of Wnt signaling); format: cell-based; conditions: for identified as promoting bone growth (Wnt signaling / inhibition of sclerostin): human cells, luciferase Wnt pathway activity; for concentration at which compound inhibits sclerostin and restores normal Wnt activity (RLU): human embryonic cells, luciferase RLU, p<0.05
T1 construct: host or cells: human cells (reporter cells)
T1 sequence (Q9BQB4 24-213): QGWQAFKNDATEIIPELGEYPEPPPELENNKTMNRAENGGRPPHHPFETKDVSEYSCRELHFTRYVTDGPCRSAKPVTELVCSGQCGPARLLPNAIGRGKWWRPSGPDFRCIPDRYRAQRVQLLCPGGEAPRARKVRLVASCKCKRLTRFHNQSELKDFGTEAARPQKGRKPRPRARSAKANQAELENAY
Protocol: (§1) The Y axis represents Relative Light Units (RLU) which represents Wnt pathway signaling. Addition of Wnt (W) activates the Wnt pathway, while addition of Sclerostin (S) inhibits the Wnt pathway. Addition of Compound 1 inhibits sclerostin and restores normal Wnt activity at 3 μM. Asterisks represent statistically significant p<0.05.
as §1, with “2” for “1”, “10” for “3”
Briefly, human cells are treated with a predetermined dose of a candidate compound for a complete dosing schedule. Control vehicle treated cells are treated with a control solution, preferably a non-irritating buffer solution or other carrier. Once the dosing schedule has been completed, both test and control assays are examined for luciferase Wnt pathway activity to determine the quantity of Wnt signaling and thus inhibition of sclerostin.
Bars marked with a double asterisk indicate a significant difference as compared to S, but not as compared to W. Concentrations are indicated along the X axis in micromolar values.
Concentrations are indicated along the X axis in micromolar values.

osteocalcin (OCN) = assay: Bone formation assay: osteocalcin (OCN) ELISA in cells treated with sclerostin and compound; format: cell-based, human
Text: Bone formation can be assayed in vitro or in vivo using a serum marker for bone formation, osteocalcin (OCN). OCN is commercially available, e.g., from Biomedical Technologies, Inc. (Stoughton, Mass.). In one exemplary assay, using the manufacturer's protocol for the mouse osteocalcin EIA kit (described at http://www.btiinc.com/page/cata2/html#mouse_osteocalcin) bone formation in cells such as MC3T3 osteoblast cells can be assayed by measuring the concentration of OCN. An ELISA assay followed by spectrophotometer optical density (OD) readings to measure the concentration of OCN is used to detect the level of OCN secreted from cells, e.g., cells treated with a vehicle control, a sclerostin control, or with a combination of sclerostin and a compound as described herein. In some embodiments, the cells are treated with increasing doses of the control or compound.
Compound 2 was added in increasing amounts (0.13 μM-100 μM) with sclerostin at 1/8 volume.

Row | Structure (SMILES) | identified as promoting bone growth (Wnt signaling / inhibition of sclerostin) (Sclerostin) | concentration at which compound inhibits sclerostin and restores normal Wnt activity (RLU) (Sclerostin) [µM] | effect on OCN induction blocked by sclerostin (osteocalcin (OCN); 0.13 μM-100 μM compound with sclerostin at 1/8 volume) | stimulation of bone formation marker OCN versus vehicle-treated cells with No Sclerostin (NS) (osteocalcin (OCN); 20 μM compound with Sclerostin at 1/8 volume)
1 | COc1ccc(-c2nccc3c2[nH]c2ccccc23)cc1 [Compound 2, 1-(4-methoxyphenyl)-9H-pyrido[3,4-b]indole] | identified as promoting bone growth | 10 | restoration of OCN activity that was blocked by sclerostin | stimulation of OCN well over that of the vehicle-treated cells
2 | Cc1nc(O)cc2c1[nH]c1ccccc12 [Compound 1, 3-hydroxy-1-methyl-9H-pyrido[3,4-b]indole] | identified as promoting bone growth | 3 | – | –

From patent publication US20130315965A1, “HARMINE DERIVATIVES FOR PROMOTING BONE GROWTH” (OssiFi, Inc., priority 2012, published 2013)
